Data from US20260217683A1, “PYRIDAZINONE HETEROCYCLIC COMPOUND MYOSIN II INHIBITOR AND USE THEREOF” (Xizang Haisco Pharmaceutical Co., Ltd., priority 2023, published 2026).

Legend:
CYP1A2 = target: T1, CYP1A2 (Homo sapiens, UniProt P05177); assay: CYP450 enzyme inhibition, human liver microsomes, CYP1A2; type: in vitro ADME
T1 construct: incubated with human liver microsomes and test compounds of different concentrations; from tissue; host or cells: human liver microsomes
T1 sequence (P05177 1-516): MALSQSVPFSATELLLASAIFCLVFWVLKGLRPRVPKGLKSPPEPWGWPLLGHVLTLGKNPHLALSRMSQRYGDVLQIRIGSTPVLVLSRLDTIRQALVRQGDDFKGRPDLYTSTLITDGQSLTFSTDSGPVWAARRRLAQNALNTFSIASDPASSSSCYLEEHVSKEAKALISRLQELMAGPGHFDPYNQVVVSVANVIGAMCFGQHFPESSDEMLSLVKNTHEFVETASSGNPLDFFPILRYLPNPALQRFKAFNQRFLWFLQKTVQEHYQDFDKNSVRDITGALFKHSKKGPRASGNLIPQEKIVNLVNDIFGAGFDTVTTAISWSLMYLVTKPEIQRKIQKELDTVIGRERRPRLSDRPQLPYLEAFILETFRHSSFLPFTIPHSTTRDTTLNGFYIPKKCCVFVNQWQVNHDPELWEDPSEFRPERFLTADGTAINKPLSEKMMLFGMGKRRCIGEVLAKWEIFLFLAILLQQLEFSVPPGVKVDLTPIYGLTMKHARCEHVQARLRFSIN
Description: (§1) The purpose of this study was to evaluate the effect of the test compound on the activity of five isoenzymes (CYP1A2, CYP2C9, CYP2C19, CYP2D6 and CYP3A4) of human liver microsomal cytochrome P450 (CYP) by using an in vitro testing system. The specific probe substrates of CYP450 isoenzymes were incubated with human liver microsomes and test compounds of different concentrations, and reduced nicotinamide adenine dinucleotide phosphate (NADPH) was added to initiate the reaction. After the completion of the reaction, the sample was treated and liquid chromatography-tandem mass spectrometry (LC-MS/MS) was used to quantitatively detect metabolites produced by specific substrates, changes in CYP enzyme activity were determined, and IC50 value was calculated to evaluate the inhibitory potential of the test compound on each CYP enzyme subtype.

cardiac myosin SII = target: T2, cardiac myosin SII (Bos taurus, UniProt Q9BE39); assay: Inhibition of hydrolysis of ATP by cardiac myosin SII; type: biochemical; settings: 100 μM compound
T2 construct: purchased Cytoskeleton #MYO3-A
T2 sequence (Q9BE39 whole entry): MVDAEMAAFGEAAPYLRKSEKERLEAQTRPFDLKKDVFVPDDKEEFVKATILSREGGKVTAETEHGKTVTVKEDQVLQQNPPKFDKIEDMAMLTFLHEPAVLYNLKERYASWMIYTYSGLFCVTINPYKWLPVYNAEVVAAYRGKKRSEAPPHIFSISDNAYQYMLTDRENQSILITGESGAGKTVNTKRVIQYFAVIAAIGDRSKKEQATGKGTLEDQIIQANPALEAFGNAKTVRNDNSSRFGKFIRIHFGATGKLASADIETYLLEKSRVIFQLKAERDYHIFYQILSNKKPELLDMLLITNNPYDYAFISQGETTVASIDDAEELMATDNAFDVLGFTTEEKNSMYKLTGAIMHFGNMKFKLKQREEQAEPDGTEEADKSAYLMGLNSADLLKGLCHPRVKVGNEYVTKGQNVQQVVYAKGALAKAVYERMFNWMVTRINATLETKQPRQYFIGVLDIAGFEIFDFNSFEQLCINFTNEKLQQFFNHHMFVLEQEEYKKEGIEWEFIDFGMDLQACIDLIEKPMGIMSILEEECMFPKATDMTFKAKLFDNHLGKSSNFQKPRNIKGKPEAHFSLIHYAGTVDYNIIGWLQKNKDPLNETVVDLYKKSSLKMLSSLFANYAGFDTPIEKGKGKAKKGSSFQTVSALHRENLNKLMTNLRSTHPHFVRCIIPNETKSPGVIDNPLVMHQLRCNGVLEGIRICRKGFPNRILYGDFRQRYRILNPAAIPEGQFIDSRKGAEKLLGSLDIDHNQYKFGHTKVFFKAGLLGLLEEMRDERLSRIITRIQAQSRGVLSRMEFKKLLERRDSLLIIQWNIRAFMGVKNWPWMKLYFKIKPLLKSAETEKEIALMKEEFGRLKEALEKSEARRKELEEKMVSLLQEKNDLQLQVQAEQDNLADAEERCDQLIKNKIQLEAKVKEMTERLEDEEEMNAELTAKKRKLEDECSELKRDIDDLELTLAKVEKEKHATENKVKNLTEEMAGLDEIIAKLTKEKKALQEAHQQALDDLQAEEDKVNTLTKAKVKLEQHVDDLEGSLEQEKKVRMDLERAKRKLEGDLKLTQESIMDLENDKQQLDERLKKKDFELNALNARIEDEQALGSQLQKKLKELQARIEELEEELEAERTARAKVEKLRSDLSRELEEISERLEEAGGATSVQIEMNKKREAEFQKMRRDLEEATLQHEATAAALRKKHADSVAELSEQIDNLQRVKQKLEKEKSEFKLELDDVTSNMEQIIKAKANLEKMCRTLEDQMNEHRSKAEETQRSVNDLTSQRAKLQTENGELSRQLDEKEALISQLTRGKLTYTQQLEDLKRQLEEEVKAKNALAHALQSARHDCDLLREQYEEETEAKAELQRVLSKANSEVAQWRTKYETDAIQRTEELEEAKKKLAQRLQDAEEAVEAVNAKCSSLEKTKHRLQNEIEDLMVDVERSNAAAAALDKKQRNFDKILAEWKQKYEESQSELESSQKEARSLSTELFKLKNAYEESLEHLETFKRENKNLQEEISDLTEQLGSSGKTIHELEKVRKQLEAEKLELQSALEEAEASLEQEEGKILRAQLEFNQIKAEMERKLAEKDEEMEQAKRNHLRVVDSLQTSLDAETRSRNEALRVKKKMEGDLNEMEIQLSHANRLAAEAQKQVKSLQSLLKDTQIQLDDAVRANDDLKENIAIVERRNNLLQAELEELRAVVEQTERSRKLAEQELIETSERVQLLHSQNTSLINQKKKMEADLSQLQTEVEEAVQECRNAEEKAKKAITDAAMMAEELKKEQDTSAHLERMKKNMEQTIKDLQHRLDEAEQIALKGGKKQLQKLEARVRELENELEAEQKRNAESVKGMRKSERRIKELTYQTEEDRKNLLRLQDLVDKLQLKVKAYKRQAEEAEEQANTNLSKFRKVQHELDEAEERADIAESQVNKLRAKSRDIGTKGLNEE
T2 sequence (P85100 whole entry partner): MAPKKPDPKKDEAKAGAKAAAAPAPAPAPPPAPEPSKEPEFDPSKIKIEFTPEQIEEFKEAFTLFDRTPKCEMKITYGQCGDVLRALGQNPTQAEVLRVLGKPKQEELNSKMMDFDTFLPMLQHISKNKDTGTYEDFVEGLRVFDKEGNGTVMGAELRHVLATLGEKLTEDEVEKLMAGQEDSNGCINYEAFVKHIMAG
T2 sequence (Q3SZE5 whole entry partner): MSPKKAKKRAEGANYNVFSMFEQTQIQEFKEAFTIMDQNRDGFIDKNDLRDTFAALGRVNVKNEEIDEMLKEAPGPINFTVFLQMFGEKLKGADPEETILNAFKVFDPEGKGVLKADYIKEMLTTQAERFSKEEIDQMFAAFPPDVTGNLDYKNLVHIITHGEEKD
Outline: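 Bovine cardiac myosin with preformed F-actin in 15 mM Tris-HCl pH 7.5, 10 mM KCl, 2 mM MgCl2, 0.1 mM EGTA; compounds at 100 μM final, ATP from 3 mM working solution, 2 h at 37 °C. Released Pi measured colorimetrically at 650 nm against a Pi standard curve; % inhibition vs. DMSO control.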

CYP2C19 = target: T3, CYP2C19 (Homo sapiens, UniProt P33261); assay: CYP450 enzyme inhibition, human liver microsomes, CYP2C19; type: in vitro ADME
T3 construct: incubated with human liver microsomes and test compounds of different concentrations; from tissue; host or cells: human liver microsomes
T3 sequence (P33261 whole entry): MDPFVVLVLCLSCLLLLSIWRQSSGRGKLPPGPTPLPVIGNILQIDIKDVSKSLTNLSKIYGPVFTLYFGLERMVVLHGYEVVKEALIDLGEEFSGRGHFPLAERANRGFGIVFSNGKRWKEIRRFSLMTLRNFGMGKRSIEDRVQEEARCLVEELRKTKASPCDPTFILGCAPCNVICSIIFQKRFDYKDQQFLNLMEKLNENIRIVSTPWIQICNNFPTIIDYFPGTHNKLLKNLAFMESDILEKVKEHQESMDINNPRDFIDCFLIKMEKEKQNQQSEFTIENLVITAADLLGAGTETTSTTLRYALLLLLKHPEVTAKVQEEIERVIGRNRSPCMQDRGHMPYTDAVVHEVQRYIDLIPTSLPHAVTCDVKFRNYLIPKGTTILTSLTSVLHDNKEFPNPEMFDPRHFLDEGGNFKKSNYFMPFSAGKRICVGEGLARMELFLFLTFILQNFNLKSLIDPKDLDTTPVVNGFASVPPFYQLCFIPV
Description: as §1

[1] = Pharmacokinetic experiment in mice; type: in vivo; settings: male, C57, po; mouse plasma, i.g. (10 mg/kg)
Description: (§2) 1. Experimental animals: Male C57 mice, 22-25 g, 6 mice/compound. Purchased from Chengdu Ddossy Experimental Animals Co., Ltd.
(§3) 2. Experimental design: On the day of the experiment, 12 C57 mice were randomly grouped according to their body weight. The animals were fasted with water available for 12 to 14 h one day before the administration and were fed 4 h after the administration.
Before and after the administration, 0.06 mL of blood was taken from the orbit of the animals under isoflurane anesthesia and placed in an EDTAK2 centrifuge tube. The blood was centrifuged at 5000 rpm and 4° C. for 10 min to collect the plasma. The blood collection time points for the intravenous group and intragastric administration group were: 0 m, 5 m, 15 min, 30 min, 1 h, 2 h, 4 h, 7 h and 24 h. Before analysis and detection, all samples were stored at −80° C., and a quantitative analysis of samples was performed using LC-MS/MS.

[2] = Pharmacokinetic experiment in mouse muscle tissue (tibialis anterior / plasma); type: in vivo, C57 mice; settings: male, C57, tibialis anterior muscle / plasma, oral, intragastric 10 mg/kg, read-out: Ratio = Tibialis anterior Conc./Plasma Conc.
Description: as §2
as §3, with “experiment,” for “experiment, 12”, “administration. Administration was performed as per Table 10.1.” for “administration.”

IC50 (CYP1A2) | inhibition at 100 µM (cardiac myosin SII) | IC50 (CYP2C19) | half-life [1] | Kp at 6 h [2] | Kp at 24 h [2] | AUC(0-t) [1] | Cmax [1] | Compound
> 30 µM | 4% | > 30 µM | – | – | – | – | – | O=C1CCc2ccc(Cn3nc(-c4cnc(OC5COCC5(F)F)nc4)ccc3=O)cc21 (stereo not drawn) [Compound 164]
> 30 µM | – | > 30 µM | 91.1 h | 136 | 158 | – | – | O=C1CCc2ccc(Cn3nc(-c4cnc(OCC(F)F)nc4)ccc3=O)cc21 [Compound 131]
> 30 µM | 4% | > 30 µM | – | – | – | – | – | O=C1CCc2c(F)cc(Cn3nc(-c4cnc(OCC(F)F)nc4)ccc3=O)cc21 [Compound 167]
– | 1.5% | – | – | – | – | – | – | O=c1ccc(-c2cnc(OCC(F)(F)F)nc2)nn1Cc1ccc2c(c1)CCC2 [Compound 57]
> 30 µM | 10% | > 30 µM | 52.3 h | 113 | 171 | – | – | O=C1CCc2ccc(Cn3nc(-c4cnc(O[C@@H]5CCOC5)nc4)ccc3=O)cc21 [Compound 149]
> 30 µM | – | > 30 µM | 102 h | 63.5 | 81.1 | 2320 ng·h/mL | 324 ng/mL | O=C1CCc2ccc(Cn3nc(-c4cnc(OCC(F)(F)F)nc4)ccc3=O)cc21 [Compound 88]
> 30 µM | -2% | > 30 µM | – | – | – | – | – | O=C1CCc2ccc(Cn3nc(-c4cnc(Oc5cncc(Cl)c5)nc4)ccc3=O)cc21 [Compound 151]
> 30 µM | – | > 30 µM | – | – | – | – | – | O=C1CCc2c(F)cc(Cn3nc(-c4cnc(O[C@H]5CCOC5)nc4)ccc3=O)cc21 [Compound 165]
> 30 µM | 14% | > 30 µM | – | 89.9 | 116 | – | – | O=C1CCc2ccc(Cn3nc(-c4cnc(OC5CC(F)(F)C5)nc4)ccc3=O)cc21 [Compound 141]
> 30 µM | 10% | > 30 µM | – | – | – | – | – | N#CC1(COc2ncc(-c3ccc(=O)n(Cc4ccc5c(c4)C(=O)CC5)n3)cn2)CC1 [Compound 158]
– | 15% | – | 40.7 h | 82.2 | 140 | – | – | O=C1CCc2ccc(Cn3nc(-c4cnc(O[C@H]5CCOC5)nc4)ccc3=O)cc21 [Compound 150]
